Measurements from article PMC6941823, “A dispensable paralog of succinate dehydrogenase subunit C mediates standing resistance towards a subclass of SDHI fungicides in Zymoseptoria tritici” (PLoS Pathogens, 2019).

The compounds below were run against SQR of 06STD024 (SDHC / altC) mitochondria (Zymoseptoria tritici, UniProt A0A1X7RQW2+F9X9V6+F9XH52+O42772) (assay: Succinate-quinone (SQR) SDHI sensitivity assay on purified mitochondria, 06STD024). Conditions: IC50 ratio compared to IPO323 values.
Type: biochemical
Description: (§1) Succinate-ubiquinone oxidoreductase (SQR) inhibition assays were performed on mitochondrial extracts from a panel of strains that were (i) either carrying a unique C-subunit encoding gene (ZtSDHC1, ZtSDHC1_A84I or Zt-SDHC3), or (ii) carrying two C-subunit encoding genes ZtSDHC1 and ZtSDHC3 (Table 1).
(§2) Biomass production, mitochondrial extraction and purification were performed as described in [14]. Succinate: ubiquinone/DCPIP sensitivity tests were performed as described in [14] with minor modification.

Structure (SMILES) | RF (resistance factor), 06STD024 (SDHC / altC)
Cn1cc(C(=O)Nc2ccccc2-c2cc(F)c(F)c(F)c2)c(C(F)F)n1 [Fluxapyroxad] | 0.8

Same assay, conditions: mitochondria of field isolate 06STD024; mean of three ± SD

Structure (SMILES) | IC50 [nM]
Cn1cc(C(=O)Nc2ccccc2-c2cc(F)c(F)c(F)c2)c(C(F)F)n1 [Fluxapyroxad] | 3.5 ± 0.3

These compounds were tested on SQR (SDHC / altC) of IPO323 pTet::SDHC3 transformant, induced (assay: Succinate-quinone (SQR) SDHI sensitivity assay on purified mitochondria, IPO323 pTet::SDHC3 induced). Conditions: IC50 ratio compared to IPO323 values.
Type: biochemical, Zymoseptoria tritici
Description: as §1, §2

Structure (SMILES) | RF (resistance factor), pTet Induced (SDHC / altC)
Cn1cc(C(=O)Nc2ccccc2-c2cc(F)c(F)c(F)c2)c(C(F)F)n1 [Fluxapyroxad] | 0.8

Same assay, conditions: IPO323 pTet::SDHC3 transformant grown in the absence of doxycycline; mean of three ± SD

Structure (SMILES) | IC50 [nM]
Cn1cc(C(=O)Nc2ccccc2-c2cc(F)c(F)c(F)c2)c(C(F)F)n1 [Fluxapyroxad] | 3.3 ± 0.6

These compounds were tested against altC-SQR (altC) of D024 SDHC1 KO mitochondria (Zymoseptoria tritici, UniProt A0A1X7RQW2+F9X9V6+O42772) (assay: Succinate-quinone (SQR) SDHI sensitivity assay on purified mitochondria, 06STD024 SDHC1 KO). Conditions: IC50 ratio compared to IPO323 values.
Type: biochemical
Description: as §1, §2

Structure (SMILES) | RF (resistance factor), D024 SDHC1 KO (altC)
Cn1cc(C(=O)Nc2ccccc2-c2cc(F)c(F)c(F)c2)c(C(F)F)n1 [Fluxapyroxad] | 0.7

Same assay, conditions: mitochondria of 06STD024 ZtSDHC1 deletion mutant (pure altC-SQR); mean of three ± SD

Structure (SMILES) | IC50 [nM]
Cn1cc(C(=O)Nc2ccccc2-c2cc(F)c(F)c(F)c2)c(C(F)F)n1 [Fluxapyroxad] | 3.1 ± 0.4

What follows are compounds tested against WT-SQR (SDHC), IPO323 mitochondria (Zymoseptoria tritici, UniProt F9X9V6+F9XH52+O42772) (assay: Succinate-quinone (SQR) SDHI sensitivity assay on purified mitochondria, IPO323). Conditions: mitochondria of IPO323; mean of three determinations ± SD; read-out: Succinate-quinone IC50, IPO323 (SDHC).
Type: biochemical
Description: as §1
(§3) Biomass production, mitochondrial extraction and purification were performed as described in [14]. Succinate: ubiquinone/DCPIP sensitivity tests were performed as described in [14] with minor modification. The different mitochondrial suspensions were adjusted to similar initial velocity (1 OD595nm hour^-1) and inhibitor concentrations ranged between 0.047nM and 50μM with uniform 4x dilution steps (11 concentrations + DMSO control). Calculated absorbance slopes (OD/min) were used for IC50 calculations using GraphPad Prism 6.07 software non-linear curve fitting against log inhibitor concentrations.

Structure (SMILES) | IC50 [nM]
Cn1cc(C(=O)Nc2ccccc2-c2cc(F)c(F)c(F)c2)c(C(F)F)n1 [Fluxapyroxad] | 4.3 ± 1.1

What follows are compounds tested on Zymoseptoria tritici field and genetically modified strains (assay: Liquid culture assay for fungicide sensitivity determination). Conditions: strain 06STD024; liquid culture sensitivity; read-out: EC50 (nM) Mean.
Type: cell-based
Description: Sensitivity towards commercial fungicides was determined for a set of 99 SHA-SDHI-naïve Z. tritici field isolates sampled in Europe between 2006 and 2009. The EC50 of these isolates was determined in liquid growth assays and the data obtained compared for each possible pair of SDHI fungicides (cross-resistance (XR) plots, Fig 1). […] Comparative succinate-quinone reductase (SQR) enzyme inhibition tests were performed with mitochondria extracted from a panel of SHA-SDHIs tolerant and sensitive isolates.
In order to characterize in more depth the mechanisms driving sensitivity differences across the isolates, a subset of eight isolates carrying the ZtSDHC3 gene was analyzed for their sensitivity to SDHIs, alt-SDHC expression and splicing patterns. Liquid culture growth sensitivity tests were performed to determine EC50s for this set of isolates towards a wide range of commercial and research SDHIs (S5 Table).
Pre-culture of the inoculum and fungicide sensitivity tests were performed following previously described procedures. Different ranges of inhibitor concentrations were used for population monitoring and for the detailed phenotyping of a selected set of individual field isolates and genetically modified strains. For fungicide sensitivity monitoring of European field populations, final inhibitors concentrations were between 100 mg.L^-1 and 0.0001 mg.L^-1 with uniform 10x dilution steps (7 inhibitor concentrations + DMSO control). For refined sensitivity analysis of a smaller panel of isolates final inhibitor concentrations ranged between 0.5 mM and 0.47 nM with uniform 4x dilution factor steps (11 inhibitor concentrations+ DMSO control).

Structure (SMILES) | EC50 [nM]
Cn1cc(C(=O)Nc2ccccc2-c2cc(F)c(F)c(F)c2)c(C(F)F)n1 [Fluxapyroxad] | 83.2

Same assay, conditions: strain 07STGB009; liquid culture sensitivity; read-out: EC50 (nM) Mean

Structure (SMILES) | EC50 [nM]
Cn1cc(C(=O)Nc2ccccc2-c2cc(F)c(F)c(F)c2)c(C(F)F)n1 [Fluxapyroxad] | 72.2

Same assay, conditions: strain 09STD041; liquid culture sensitivity; read-out: EC50 (nM) Mean

Structure (SMILES) | EC50 [nM]
Cn1cc(C(=O)Nc2ccccc2-c2cc(F)c(F)c(F)c2)c(C(F)F)n1 [Fluxapyroxad] | 142

Same assay, conditions: strain 09STD053; liquid culture sensitivity; read-out: EC50 (nM) Mean

Structure (SMILES) | EC50 [nM]
Cn1cc(C(=O)Nc2ccccc2-c2cc(F)c(F)c(F)c2)c(C(F)F)n1 [Fluxapyroxad] | 132

Same assay, conditions: strain 09STF011; liquid culture sensitivity; read-out: EC50 (nM) Mean

Structure (SMILES) | EC50 [nM]
Cn1cc(C(=O)Nc2ccccc2-c2cc(F)c(F)c(F)c2)c(C(F)F)n1 [Fluxapyroxad] | 119

Same assay, conditions: strain 09STF037; liquid culture sensitivity; read-out: EC50 (nM) Mean

Structure (SMILES) | EC50 [nM]
Cn1cc(C(=O)Nc2ccccc2-c2cc(F)c(F)c(F)c2)c(C(F)F)n1 [Fluxapyroxad] | 110

Same assay, conditions: strain 09STF112; liquid culture sensitivity; read-out: EC50 (nM) Mean

Structure (SMILES) | EC50 [nM]
Cn1cc(C(=O)Nc2ccccc2-c2cc(F)c(F)c(F)c2)c(C(F)F)n1 [Fluxapyroxad] | 152

Same assay, conditions: strain 09STIR20.3; liquid culture sensitivity; read-out: EC50 (nM) Mean

Structure (SMILES) | EC50 [nM]
Cn1cc(C(=O)Nc2ccccc2-c2cc(F)c(F)c(F)c2)c(C(F)F)n1 [Fluxapyroxad] | 295

Same assay, conditions: strain Flu21 (SDHC1_A84I); liquid culture sensitivity; read-out: EC50 (nM) Mean

Structure (SMILES) | EC50 [nM]
Cn1cc(C(=O)Nc2ccccc2-c2cc(F)c(F)c(F)c2)c(C(F)F)n1 [Fluxapyroxad] | 818

Same assay, conditions: strain IPO323; liquid culture sensitivity; read-out: EC50 (nM) Mean

Structure (SMILES) | EC50 [nM]
Cn1cc(C(=O)Nc2ccccc2-c2cc(F)c(F)c(F)c2)c(C(F)F)n1 [Fluxapyroxad] | 102

Same assay, conditions: strain IPO94269; liquid culture sensitivity; read-out: EC50 (nM) Mean

Structure (SMILES) | EC50 [nM]
Cn1cc(C(=O)Nc2ccccc2-c2cc(F)c(F)c(F)c2)c(C(F)F)n1 [Fluxapyroxad] | 121

Same assay, conditions: strain KO_SDHC1_T1; liquid culture sensitivity; read-out: EC50 (nM) Mean

Structure (SMILES) | EC50 [nM]
Cn1cc(C(=O)Nc2ccccc2-c2cc(F)c(F)c(F)c2)c(C(F)F)n1 [Fluxapyroxad] | 438

Same assay, conditions: strain KO_SDHC1_T3; liquid culture sensitivity; read-out: EC50 (nM) Mean

Structure (SMILES) | EC50 [nM]
Cn1cc(C(=O)Nc2ccccc2-c2cc(F)c(F)c(F)c2)c(C(F)F)n1 [Fluxapyroxad] | 361

Same assay, conditions: strain KO_SDHC3_T4; liquid culture sensitivity; read-out: EC50 (nM) Mean

Structure (SMILES) | EC50 [nM]
Cn1cc(C(=O)Nc2ccccc2-c2cc(F)c(F)c(F)c2)c(C(F)F)n1 [Fluxapyroxad] | 216

Same assay, conditions: strain KO_SDHC3_T13; liquid culture sensitivity; read-out: EC50 (nM) Mean

Structure (SMILES) | EC50 [nM]
Cn1cc(C(=O)Nc2ccccc2-c2cc(F)c(F)c(F)c2)c(C(F)F)n1 [Fluxapyroxad] | 144

Same assay, conditions: strain pTet::SDHC3_I78A_T1; liquid culture sensitivity; read-out: EC50 (nM) Mean

Structure (SMILES) | EC50 [nM]
Cn1cc(C(=O)Nc2ccccc2-c2cc(F)c(F)c(F)c2)c(C(F)F)n1 [Fluxapyroxad] | 115

Same assay, conditions: strain pTet::SDHC3_I78A_T5; liquid culture sensitivity; read-out: EC50 (nM) Mean

Structure (SMILES) | EC50 [nM]
Cn1cc(C(=O)Nc2ccccc2-c2cc(F)c(F)c(F)c2)c(C(F)F)n1 [Fluxapyroxad] | 265

Same assay, conditions: strain pTet::SDHC3_I78A_T15; liquid culture sensitivity; read-out: EC50 (nM) Mean

Structure (SMILES) | EC50 [nM]
Cn1cc(C(=O)Nc2ccccc2-c2cc(F)c(F)c(F)c2)c(C(F)F)n1 [Fluxapyroxad] | 145

Same assay, conditions: strain pTet::SDHC3_I78A_T35; liquid culture sensitivity; read-out: EC50 (nM) Mean

Structure (SMILES) | EC50 [nM]
Cn1cc(C(=O)Nc2ccccc2-c2cc(F)c(F)c(F)c2)c(C(F)F)n1 [Fluxapyroxad] | 79.5

Same assay, conditions: strain pTet::SDHC3_T1; liquid culture sensitivity; read-out: EC50 (nM) Mean

Structure (SMILES) | EC50 [nM]
Cn1cc(C(=O)Nc2ccccc2-c2cc(F)c(F)c(F)c2)c(C(F)F)n1 [Fluxapyroxad] | 148

Same assay, conditions: strain pTet::SDHC3_T2; liquid culture sensitivity; read-out: EC50 (nM) Mean

Structure (SMILES) | EC50 [nM]
Cn1cc(C(=O)Nc2ccccc2-c2cc(F)c(F)c(F)c2)c(C(F)F)n1 [Fluxapyroxad] | 129

Same assay, conditions: strain pTet::SDHC3_T3; liquid culture sensitivity; read-out: EC50 (nM) Mean

Structure (SMILES) | EC50 [nM]
Cn1cc(C(=O)Nc2ccccc2-c2cc(F)c(F)c(F)c2)c(C(F)F)n1 [Fluxapyroxad] | 102

Same assay, conditions: strain pTet::SDHC3_T7; liquid culture sensitivity; read-out: EC50 (nM) Mean

Structure (SMILES) | EC50 [nM]
Cn1cc(C(=O)Nc2ccccc2-c2cc(F)c(F)c(F)c2)c(C(F)F)n1 [Fluxapyroxad] | 197

The compounds below were run against SQR (SDHC / altC) of IPO323 pTet::SDHC3 transformant, repressed (Zymoseptoria tritici, UniProt A0A1X7RQW2+F9X9V6+F9XH52+O42772) (assay: Succinate-quinone (SQR) SDHI sensitivity assay on purified mitochondria, IPO323 pTet::SDHC3 repressed). Conditions: IC50 ratio compared to IPO323 values.
Type: biochemical
Description: as §1, §2

Chain of SQR (SDHC / altC) of IPO323 pTet::SDHC3 transformant, repressed (F9XH52 44-187): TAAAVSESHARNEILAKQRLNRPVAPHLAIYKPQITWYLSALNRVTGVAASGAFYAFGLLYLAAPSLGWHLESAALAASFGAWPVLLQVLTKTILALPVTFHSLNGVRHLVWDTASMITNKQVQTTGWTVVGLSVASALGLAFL
Chain of SQR (SDHC / altC) of IPO323 pTet::SDHC3 transformant, repressed (O42772 20-297): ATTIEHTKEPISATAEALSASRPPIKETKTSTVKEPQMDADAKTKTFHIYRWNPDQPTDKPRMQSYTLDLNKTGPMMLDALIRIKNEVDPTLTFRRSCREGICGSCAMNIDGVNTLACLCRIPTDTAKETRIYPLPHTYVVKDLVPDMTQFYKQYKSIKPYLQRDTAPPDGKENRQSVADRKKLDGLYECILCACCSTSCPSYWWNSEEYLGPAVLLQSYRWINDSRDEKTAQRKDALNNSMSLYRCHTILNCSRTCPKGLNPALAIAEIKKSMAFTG
Chain of SQR (SDHC / altC) of IPO323 pTet::SDHC3 transformant, repressed (F9X9V6 1-193): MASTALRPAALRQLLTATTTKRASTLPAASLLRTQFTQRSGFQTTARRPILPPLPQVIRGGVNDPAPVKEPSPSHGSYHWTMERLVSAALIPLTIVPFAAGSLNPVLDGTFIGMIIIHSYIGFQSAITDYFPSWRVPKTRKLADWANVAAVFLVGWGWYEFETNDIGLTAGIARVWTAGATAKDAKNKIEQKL
Chain of SQR (SDHC / altC) of IPO323 pTet::SDHC3 transformant, repressed (A0A1X7RQW2 36-181): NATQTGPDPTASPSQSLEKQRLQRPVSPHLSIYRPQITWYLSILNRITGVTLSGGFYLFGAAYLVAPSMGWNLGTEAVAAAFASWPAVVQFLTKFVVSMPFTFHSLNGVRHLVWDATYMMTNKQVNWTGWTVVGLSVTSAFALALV
Chain of SQR (SDHC / altC) of IPO323 pTet::SDHC3 transformant, repressed (F9WWR1 41-643 partner): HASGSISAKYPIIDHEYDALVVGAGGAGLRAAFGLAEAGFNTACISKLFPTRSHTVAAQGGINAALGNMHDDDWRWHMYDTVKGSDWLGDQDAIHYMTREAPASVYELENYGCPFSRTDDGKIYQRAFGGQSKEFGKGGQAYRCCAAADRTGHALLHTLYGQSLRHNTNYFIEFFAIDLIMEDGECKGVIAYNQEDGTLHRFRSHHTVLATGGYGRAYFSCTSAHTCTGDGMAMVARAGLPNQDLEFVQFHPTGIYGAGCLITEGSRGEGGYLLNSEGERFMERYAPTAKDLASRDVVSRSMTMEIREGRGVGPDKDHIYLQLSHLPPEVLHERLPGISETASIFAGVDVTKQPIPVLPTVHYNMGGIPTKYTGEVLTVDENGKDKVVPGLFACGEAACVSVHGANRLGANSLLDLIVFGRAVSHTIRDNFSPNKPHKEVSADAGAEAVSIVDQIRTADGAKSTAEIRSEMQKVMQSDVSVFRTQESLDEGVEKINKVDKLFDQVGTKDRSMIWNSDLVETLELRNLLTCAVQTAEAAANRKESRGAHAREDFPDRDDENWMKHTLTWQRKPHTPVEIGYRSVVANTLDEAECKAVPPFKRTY

Structure (SMILES) | RF (resistance factor), pTet Repressed (SDHC / altC)
Cn1cc(C(=O)Nc2ccccc2-c2cc(F)c(F)c(F)c2)c(C(F)F)n1 [Fluxapyroxad] | 1.1

Same assay, conditions: IPO323 pTet::SDHC3 transformant grown in presence of 30 mg.L^-1 doxycycline; mean of three ± SD

Structure (SMILES) | IC50 [nM]
Cn1cc(C(=O)Nc2ccccc2-c2cc(F)c(F)c(F)c2)c(C(F)F)n1 [Fluxapyroxad] | 4.5 ± 1

What follows are compounds tested against C_A84I-SQR (SDHC_A84I), IPO323_Flu21 mitochondria (Zymoseptoria tritici, UniProt F9X9V6+F9XH52+O42772, A84I) (assay: Succinate-quinone (SQR) SDHI sensitivity assay on purified mitochondria, IPO323_Flu21). Conditions: IC50 ratio compared to IPO323 values.
Type: biochemical
Description: as §1, §3

Chain of C_A84I-SQR (SDHC_A84I), IPO323_Flu21 mitochondria (F9XH52 44-187, stated change not applied): as the sequence (F9XH52 44-187) above
Chain of C_A84I-SQR (SDHC_A84I), IPO323_Flu21 mitochondria (O42772 19-297, stated change not applied): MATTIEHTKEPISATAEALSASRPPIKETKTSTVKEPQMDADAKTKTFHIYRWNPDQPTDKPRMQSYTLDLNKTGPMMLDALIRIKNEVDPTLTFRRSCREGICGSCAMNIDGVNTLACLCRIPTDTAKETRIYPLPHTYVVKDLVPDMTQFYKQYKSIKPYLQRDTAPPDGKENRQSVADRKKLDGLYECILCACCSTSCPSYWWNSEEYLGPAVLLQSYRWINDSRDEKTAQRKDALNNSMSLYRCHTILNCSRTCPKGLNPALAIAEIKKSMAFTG
Chain of C_A84I-SQR (SDHC_A84I), IPO323_Flu21 mitochondria (F9X9V6 whole entry, stated change not applied): as the sequence (F9X9V6 1-193) above
Chain of C_A84I-SQR (SDHC_A84I), IPO323_Flu21 mitochondria (F9WWR1 29-643 partner): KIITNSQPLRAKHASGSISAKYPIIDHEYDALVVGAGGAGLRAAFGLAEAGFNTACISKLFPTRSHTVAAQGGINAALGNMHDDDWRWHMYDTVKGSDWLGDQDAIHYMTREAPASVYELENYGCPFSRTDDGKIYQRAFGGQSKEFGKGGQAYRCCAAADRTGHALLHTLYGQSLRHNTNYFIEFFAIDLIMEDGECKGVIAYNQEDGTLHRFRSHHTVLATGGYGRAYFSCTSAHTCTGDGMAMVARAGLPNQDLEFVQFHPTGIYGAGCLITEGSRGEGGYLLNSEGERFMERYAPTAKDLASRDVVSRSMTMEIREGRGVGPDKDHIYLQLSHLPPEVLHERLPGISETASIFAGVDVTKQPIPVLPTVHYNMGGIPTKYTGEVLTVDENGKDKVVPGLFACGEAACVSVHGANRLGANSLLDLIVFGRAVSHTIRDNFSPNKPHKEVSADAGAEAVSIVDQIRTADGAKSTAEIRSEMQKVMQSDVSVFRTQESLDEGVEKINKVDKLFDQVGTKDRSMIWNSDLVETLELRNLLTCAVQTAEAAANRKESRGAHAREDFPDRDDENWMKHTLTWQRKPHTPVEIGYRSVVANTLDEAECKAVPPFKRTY

Structure (SMILES) | RF (resistance factor), IPO323_Flu21 (SDHC_A84I)
Cn1cc(C(=O)Nc2ccccc2-c2cc(F)c(F)c(F)c2)c(C(F)F)n1 [Fluxapyroxad] | 1.2

Same assay, conditions: mitochondria of UV mutant IPO323_Flu21; mean of three ± SD

Structure (SMILES) | IC50 [nM]
Cn1cc(C(=O)Nc2ccccc2-c2cc(F)c(F)c(F)c2)c(C(F)F)n1 [Fluxapyroxad] | 5.1 ± 0.7

These compounds were tested against SQR (SDHC) of D024 SDHC3 KO mitochondria (Zymoseptoria tritici, UniProt F9X9V6+F9XH52+O42772) (assay: Succinate-quinone (SQR) SDHI sensitivity assay on purified mitochondria, 06STD024 SDHC3 KO). Conditions: IC50 ratio compared to IPO323 values.
Type: biochemical
Description: as §1, §3

Chain of SQR (SDHC) of D024 SDHC3 KO mitochondria (F9XH52 44-187): as the sequence (F9XH52 44-187) above
Chain of SQR (SDHC) of D024 SDHC3 KO mitochondria (O42772 19-297): as the sequence (O42772 19-297, stated change not applied) above
Chain of SQR (SDHC) of D024 SDHC3 KO mitochondria (F9X9V6 1-193): as the sequence (F9X9V6 1-193) above
Chain of SQR (SDHC) of D024 SDHC3 KO mitochondria (F9WWR1 29-643 partner): as the sequence (F9WWR1 29-643 partner) above

Structure (SMILES) | RF (resistance factor), D024 SDHC3 KO (SDHC)
Cn1cc(C(=O)Nc2ccccc2-c2cc(F)c(F)c(F)c2)c(C(F)F)n1 [Fluxapyroxad] | 0.8

Same assay, conditions: mitochondria of 06STD024 ZtSDHC3 deletion mutant; mean of three ± SD

Structure (SMILES) | IC50 [nM]
Cn1cc(C(=O)Nc2ccccc2-c2cc(F)c(F)c(F)c2)c(C(F)F)n1 [Fluxapyroxad] | 3.3 ± 0.8
